In the CheMixHub viscosity set:

Assay: xn = mol fraction of the nth substance listed

C1=C[C@H]2[C@@H](C1)[C@H]1C=C[C@@H]2C1 + CC1CCCCC1
viscosity [mPa·s], 101.2 kPa
Conditions	x1 = 0.0987	x1 = 0.2012	x1 = 0.3023	x1 = 0.4007	x1 = 0.5024	x1 = 0.6001	x1 = 0.6994	x1 = 0.8017	x1 = 0.9021
293.15 K	0.8197	0.9187	1.043	1.198	1.398	1.646	2.032	2.607	3.386
298.15 K	0.7605	0.8517	0.9677	1.1	1.28	1.504	1.855	2.367	3.029
303.15 K	0.7145	0.791	0.8907	1.011	1.178	1.387	1.693	2.156	2.723
308.15 K	0.6717	0.7439	0.8387	0.9497	1.109	1.306	1.586	1.993	2.477
313.15 K	0.6316	0.7051	0.7996	0.9101	1.05	1.226	1.473	1.819	2.259
318.15 K	0.5952	0.6697	0.7496	0.8519	0.9802	1.138	1.359	1.668	2.059

C1COCCO1 + CCCCCC
101 kPa
Conditions	viscosity [mPa·s]
303.15 K, x1 = 0.111	0.297
303.15 K, x1 = 0.1961	0.317
303.15 K, x1 = 0.3001	0.348
303.15 K, x1 = 0.4033	0.389
303.15 K, x1 = 0.4962	0.436
303.15 K, x1 = 0.5966	0.498
303.15 K, x1 = 0.7169	0.601
303.15 K, x1 = 0.8008	0.7
303.15 K, x1 = 0.8988	0.854
308.15 K, x1 = 0.1153	0.301
308.15 K, x1 = 0.2223	0.338
308.15 K, x1 = 0.3421	0.388
308.15 K, x1 = 0.4004	0.415
308.15 K, x1 = 0.5204	0.481
308.15 K, x1 = 0.7211	0.644
308.15 K, x1 = 0.8214	0.75
308.15 K, x1 = 0.9211	0.879
313.15 K, x1 = 0.1153	0.287
313.15 K, x1 = 0.2223	0.321
313.15 K, x1 = 0.3421	0.367
313.15 K, x1 = 0.4004	0.391
313.15 K, x1 = 0.5204	0.454
313.15 K, x1 = 0.6232	0.521
313.15 K, x1 = 0.7211	0.603
313.15 K, x1 = 0.8214	0.704
313.15 K, x1 = 0.9211	0.824
318.15 K, x1 = 0.1153	0.275
318.15 K, x1 = 0.2223	0.307
318.15 K, x1 = 0.3421	0.349
318.15 K, x1 = 0.4004	0.373
318.15 K, x1 = 0.5204	0.431
318.15 K, x1 = 0.6232	0.494
318.15 K, x1 = 0.7211	0.568
318.15 K, x1 = 0.8214	0.659
318.15 K, x1 = 0.9211	0.769

Brc1ccccc1 + ClC(Cl)=C(Cl)Cl
303.15 K, 101 kPa
Conditions	viscosity [mPa·s]
x2 = 0.1026	0.978
x2 = 0.1749	0.971
x2 = 0.2799	0.96
x2 = 0.3996	0.945
x2 = 0.4574	0.933
x2 = 0.5408	0.916
x2 = 0.6276	0.894
x2 = 0.7273	0.871
x2 = 0.8585	0.84
x2 = 0.9426	0.822

CCC(C)Cl (stereo unspecified) + C1CCOC1
298.15 K, 101 kPa
Conditions	viscosity [mPa·s]
x2 = 0.0544	0.3967
x2 = 0.111	0.3999
x2 = 0.2078	0.4057
x2 = 0.2947	0.411
x2 = 0.3996	0.4176
x2 = 0.5075	0.4246
x2 = 0.6041	0.4313
x2 = 0.7055	0.4387
x2 = 0.8076	0.4469
x2 = 0.9065	0.4551
x2 = 0.9544	0.4592

Brc1ccccc1 + Clc1ccccc1
298.15 K, 101 kPa
Conditions	viscosity [mPa·s]
x2 = 0.299	0.934
x2 = 0.512	0.86
x2 = 0.676	0.823
x2 = 0.828	0.774

COc1ccccc1O + Cc1ccccc1N
303.15 K, 101 kPa
Conditions	viscosity [mPa·s]
x2 = 0.1	4.73
x2 = 0.2	4.93
x2 = 0.3	5.2
x2 = 0.34	5.22
x2 = 0.36	5.19
x2 = 0.4	5.17
x2 = 0.5	5.12
x2 = 0.6	4.82
x2 = 0.7	4.38
x2 = 0.8	4
x2 = 0.9	3.58

CCCCn1cc[n+](C)c1.O=S(=O)([N-]S(=O)(=O)C(F)(F)F)C(F)(F)F + CCCCn1cc[n+](C)c1.F[B-](F)(F)F
Conditions	viscosity [mPa·s]
323.15 K, 100 kPa, x1 = 0.751	23.85

C1=C[C@H]2[C@@H](C1)[C@H]1C=C[C@@H]2C1 + Cc1ccc(C)cc1
viscosity [mPa·s], 101.2 kPa
Conditions	x1 = 0.1024	x1 = 0.1971	x1 = 0.3006	x1 = 0.3993	x1 = 0.4999	x1 = 0.6007	x1 = 0.7014	x1 = 0.8001	x1 = 0.8993
293.15 K	0.7661	0.8509	0.9724	1.127	1.347	1.626	2.014	2.625	3.5
298.15 K	0.7144	0.7986	0.9075	1.04	1.229	1.483	1.85	2.402	3.126
303.15 K	0.6724	0.7508	0.8496	0.9666	1.141	1.367	1.693	2.174	2.81
308.15 K	0.6225	0.7021	0.7934	0.9051	1.066	1.279	1.58	1.995	2.529
313.15 K	0.5997	0.6653	0.7493	0.8554	1.001	1.19	1.457	1.826	2.271
318.15 K	0.5879	0.6586	0.7357	0.8296	0.9662	1.138	1.371	1.689	2.104

COC(=O)CC(=O)OC + ClC(Cl)(Cl)Cl
303.15 K, 101 kPa
Conditions	viscosity [mPa·s]
x1 = 0.0856	0.9503
x1 = 0.1747	1.064
x1 = 0.2659	1.186
x1 = 0.3608	1.295
x1 = 0.4586	1.409
x1 = 0.5599	1.52
x1 = 0.6641	1.601
x1 = 0.7723	1.687
x1 = 0.8841	1.753

COc1ccccc1O + CS(C)=O
viscosity [mPa·s], 101 kPa
Conditions	x2 = 0.2	x2 = 0.3	x2 = 0.4	x2 = 0.5	x2 = 0.6	x2 = 0.7	x2 = 0.8	x2 = 0.9
298.15 K	10.62	12.4	11.9	9.46	6.91	4.97	3.59	2.66
308.15 K	6.47	7.54	7.38	6.23	4.81	3.67	2.83	2.12
318.15 K	4.35	5.01	4.98	4.4	3.59	2.8	2.2	1.75

CC(C)[N+](=O)[O-] + c1ccccc1
293.15 K, 101.33 kPa
Conditions	viscosity [mPa·s]
x1 = 0.0983	0.631
x1 = 0.2123	0.62
x1 = 0.2863	0.619
x1 = 0.4048	0.622
x1 = 0.5002	0.631
x1 = 0.5981	0.641
x1 = 0.7032	0.661
x1 = 0.7847	0.683
x1 = 0.908	0.731

Brc1ccccc1 + Cc1ccccc1C
101 kPa
Conditions	viscosity [mPa·s]
293.15 K, x1 = 0.114	0.795
293.15 K, x1 = 0.2198	0.827
293.15 K, x1 = 0.3257	0.862
293.15 K, x1 = 0.4383	0.893
293.15 K, x1 = 0.542	0.931
293.15 K, x1 = 0.6615	0.962
293.15 K, x1 = 0.7764	1
293.15 K, x1 = 0.882	1.035
298.15 K, x1 = 0.1101	0.728
298.15 K, x1 = 0.2223	0.765
298.15 K, x1 = 0.3227	0.795
298.15 K, x1 = 0.4226	0.826
298.15 K, x1 = 0.5207	0.863
298.15 K, x1 = 0.6643	0.9
298.15 K, x1 = 0.772	0.938
298.15 K, x1 = 0.8925	0.969
303.15 K, x1 = 0.117	0.667
303.15 K, x1 = 0.2219	0.701
303.15 K, x1 = 0.3366	0.734
303.15 K, x1 = 0.4539	0.77
303.15 K, x1 = 0.5398	0.8
303.15 K, x1 = 0.6572	0.834
303.15 K, x1 = 0.7877	0.876
303.15 K, x1 = 0.9122	0.91

Brc1ccccc1 + COc1ccccc1
viscosity [mPa·s], 101 kPa
Conditions	x2 = 0.0996	x2 = 0.1949	x2 = 0.2927	x2 = 0.3925	x2 = 0.4935	x2 = 0.5913	x2 = 0.6919	x2 = 0.7952	x2 = 0.8992
298.15 K	1.084	1.079	1.072	1.059	1.052	1.042	1.032	1.024	1.013
303.15 K	1.017	1.011	1.005	0.9905	0.9826	0.9704	0.9621	0.952	0.9439
308.15 K	0.957	0.9479	0.9392	0.9236	0.9158	0.9055	0.8959	0.8857	0.8768
313.15 K	0.8974	0.8903	0.8784	0.8659	0.8558	0.8442	0.8346	0.8247	0.8135

Brc1ccccc1 + CN(C)C=O
viscosity [mPa·s], 101.33 kPa
Conditions	x2 = 0.0879	x2 = 0.2075	x2 = 0.3085	x2 = 0.4055	x2 = 0.5063	x2 = 0.6027	x2 = 0.6877	x2 = 0.8054	x2 = 0.9001	x2 = 0.9002
303.15 K	0.982	0.973	0.963	0.949	0.931	0.905	0.879	0.831	–	0.789
313.15 K	0.889	0.879	0.87	0.854	0.838	0.816	0.792	0.749	0.711	–

Brc1ccccc1 + CCCCCO
293.15 K, 101.33 kPa
Conditions	viscosity [mPa·s]
x2 = 0.0631	1.14
x2 = 0.1715	1.212
x2 = 0.2092	1.252
x2 = 0.2807	1.335
x2 = 0.3259	1.398
x2 = 0.3831	1.512
x2 = 0.4182	1.57
x2 = 0.4909	1.716
x2 = 0.5969	2.011
x2 = 0.6886	2.346
x2 = 0.7544	2.636
x2 = 0.8796	3.294

F.[F-].[Na+] + O
viscosity [mPa·s], 100 kPa
Conditions	x1 = 0.003	x1 = 0.006	x1 = 0.009
298.15 K	0.939	0.9963	1.068
323.15 K	0.578	0.61	0.657

BrCCBr + CN1CCC[C@H]1c1cccnc1
viscosity [mPa·s], 101.33 kPa
Conditions	x2 = 0.121	x2 = 0.2341	x2 = 0.3736	x2 = 0.4915	x2 = 0.613	x2 = 0.7575	x2 = 0.8734
298.15 K	1.765	1.939	2.233	2.523	2.804	3.055	3.341
323.15 K	1.2	1.383	1.466	1.599	1.714	1.838	1.884

C=CC[P+](c1ccccc1)(c1ccccc1)c1ccccc1.[Br-] + OCC(O)CO
101 kPa, x1 = 0.0667
Conditions	viscosity [mPa·s]
296.84 K	1037
302.15 K	679.9
306.82 K	475.9
312.25 K	314.4
